Source: US20260008768A1, “UREA DERIVATIVES FOR INHIBITING NLRP3 AND USES THEREOF” (VENTUS THERAPEUTICS U.S., INC., priority 2023, published 2026)

Legend:
human NLRP3 [1] = target: T1, human NLRP3 (Homo sapiens, UniProt Q96P20); assay: Scintillation Proximity (SPA) NLRP3 Assay, displacement of 3H-MCC950; assay type: binding; settings: for IC50: displacement of 3H-MCC950 from human NLRP3
Summary of the method: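 Human NLRP3 (350 nM) preincubated 15 min at RT with compound (5% DMSO final) in HEPES pH 7.5 buffer with 100 μM ADP, then 125 nM 3H-MCC950 added for 60 min. Copper PVT SPA beads added; counts read 6 h later. Specific binding = signal minus no-protein wells, duplicates averaged; IC50 reported.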

mouse NLRP3 = target: T2, mouse NLRP3 (Mus musculus, UniProt Q8R4B8); assay: Mouse Whole Blood (mWB) NLRP3 Assay (LPS/ATP, IL-1b); assay type: cell-based
T2 construct: from tissue; host or cells: whole blood of female CD1 mice
T2 sequence (Q8R4B8 whole entry): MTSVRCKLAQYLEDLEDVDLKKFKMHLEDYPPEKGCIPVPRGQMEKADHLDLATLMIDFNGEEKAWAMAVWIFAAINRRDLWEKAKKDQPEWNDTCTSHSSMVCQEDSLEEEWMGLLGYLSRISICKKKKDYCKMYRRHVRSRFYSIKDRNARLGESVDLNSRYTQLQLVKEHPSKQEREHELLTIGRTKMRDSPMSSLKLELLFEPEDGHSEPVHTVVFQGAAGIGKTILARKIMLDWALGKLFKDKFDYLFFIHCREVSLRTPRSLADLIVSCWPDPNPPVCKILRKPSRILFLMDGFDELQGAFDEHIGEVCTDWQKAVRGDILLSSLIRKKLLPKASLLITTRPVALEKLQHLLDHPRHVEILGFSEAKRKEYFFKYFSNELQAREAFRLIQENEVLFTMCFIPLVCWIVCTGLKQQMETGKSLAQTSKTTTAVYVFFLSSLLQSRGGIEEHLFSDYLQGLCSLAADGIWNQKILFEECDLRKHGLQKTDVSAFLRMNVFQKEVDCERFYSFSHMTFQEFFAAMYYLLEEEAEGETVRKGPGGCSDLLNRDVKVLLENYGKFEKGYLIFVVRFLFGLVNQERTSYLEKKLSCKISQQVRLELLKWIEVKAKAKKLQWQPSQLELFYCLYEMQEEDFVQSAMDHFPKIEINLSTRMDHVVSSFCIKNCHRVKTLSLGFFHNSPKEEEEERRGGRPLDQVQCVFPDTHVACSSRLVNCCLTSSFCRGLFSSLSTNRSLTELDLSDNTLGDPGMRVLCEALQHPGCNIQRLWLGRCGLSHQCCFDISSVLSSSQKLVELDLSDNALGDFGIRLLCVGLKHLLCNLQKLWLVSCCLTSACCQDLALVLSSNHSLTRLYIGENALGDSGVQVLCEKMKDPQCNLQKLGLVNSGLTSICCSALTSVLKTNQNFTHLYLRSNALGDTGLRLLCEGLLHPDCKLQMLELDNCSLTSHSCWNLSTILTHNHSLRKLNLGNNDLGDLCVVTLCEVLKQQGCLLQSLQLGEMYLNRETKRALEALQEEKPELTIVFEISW
Protocol: Reagents: The following reagents were used: blood collection tubes (Heparin); U-bottom 96-well tissue culture (Falcon 353077); HBSS for LPS, ATP and compound dilutions (Gibco 24020-117); and LPS, E. coli serotype O26:B6 (Sigma L-2654).
Mouse IL-1b MSD assay: Blood was drawn from female CD1 mice (9 to 10 weeks) by cardiac puncture. Blood was plated (135 μL) per well in 96-well U-bottom plates. 7.5 μL of 20×LPS (20 μg/mL, final concentration of 1 μg/mL) was added and mixed by gentle pipetting, and the mixture was incubated in a TC incubator for five hours. 7.5 μL of 20× compound or vehicle per well was added and mixed by gentle pipetting. Compounds were diluted 1/50 in HBSS to prepare a 20× dilution curve in 2% DMSO. The mixture was incubated for 30 minutes in a TC incubator with shaking (450 rpm). 5 μl of 31×ATP (155 mM, final concentration of 5 mM) was added and mixed by gentle pipetting. The mixture was incubated in a TC incubator for 30 minutes with shaking (450 rpm). The plate was centrifuged for 10 minutes at 800×g and ˜70 μL of plasma was removed. Plasma was frozen if required. Mouse IL-1b was analyzed with IL-1b MSD assay (K152TUK).
Compounds were added 30 minutes before priming the cells with LPS when TNFα was required to be quantified in the cytokine panel to confirm selectivity.
mWB NLRP3 IC50 assay results, as a measurement of whole blood potency, are provided in Table B. “A” activity=<1 uM; “B” activity=1-2 uM; “C” activity=>2-3 uM; “D” activity=>3 uM.

human NLRP3 [2] = target: T1, human NLRP3; assay: Human PBMC NLRP3 Assay (LPS priming, ATP stimulation, cytokine measurement); assay type: cell-based; design: host or cells: human PBMCs (A2); human whole blood from healthy volunteers (A3); settings: for IC50: human PBMC, LPS + ATP
Summary of the method: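 Human PBMCs (5×10^4/well) primed with 100 ng/ml LPS for 4 h, then given compound for 30 min and stimulated with 5 mM ATP for 1 h at 37° C. Supernatant cytokines measured on the Mesoscale platform to give IC50. For TNFα selectivity, compound was added 30 min before LPS priming.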

[3] = relative to Comparative Example B1

T1 sequence (Q96P20 whole entry): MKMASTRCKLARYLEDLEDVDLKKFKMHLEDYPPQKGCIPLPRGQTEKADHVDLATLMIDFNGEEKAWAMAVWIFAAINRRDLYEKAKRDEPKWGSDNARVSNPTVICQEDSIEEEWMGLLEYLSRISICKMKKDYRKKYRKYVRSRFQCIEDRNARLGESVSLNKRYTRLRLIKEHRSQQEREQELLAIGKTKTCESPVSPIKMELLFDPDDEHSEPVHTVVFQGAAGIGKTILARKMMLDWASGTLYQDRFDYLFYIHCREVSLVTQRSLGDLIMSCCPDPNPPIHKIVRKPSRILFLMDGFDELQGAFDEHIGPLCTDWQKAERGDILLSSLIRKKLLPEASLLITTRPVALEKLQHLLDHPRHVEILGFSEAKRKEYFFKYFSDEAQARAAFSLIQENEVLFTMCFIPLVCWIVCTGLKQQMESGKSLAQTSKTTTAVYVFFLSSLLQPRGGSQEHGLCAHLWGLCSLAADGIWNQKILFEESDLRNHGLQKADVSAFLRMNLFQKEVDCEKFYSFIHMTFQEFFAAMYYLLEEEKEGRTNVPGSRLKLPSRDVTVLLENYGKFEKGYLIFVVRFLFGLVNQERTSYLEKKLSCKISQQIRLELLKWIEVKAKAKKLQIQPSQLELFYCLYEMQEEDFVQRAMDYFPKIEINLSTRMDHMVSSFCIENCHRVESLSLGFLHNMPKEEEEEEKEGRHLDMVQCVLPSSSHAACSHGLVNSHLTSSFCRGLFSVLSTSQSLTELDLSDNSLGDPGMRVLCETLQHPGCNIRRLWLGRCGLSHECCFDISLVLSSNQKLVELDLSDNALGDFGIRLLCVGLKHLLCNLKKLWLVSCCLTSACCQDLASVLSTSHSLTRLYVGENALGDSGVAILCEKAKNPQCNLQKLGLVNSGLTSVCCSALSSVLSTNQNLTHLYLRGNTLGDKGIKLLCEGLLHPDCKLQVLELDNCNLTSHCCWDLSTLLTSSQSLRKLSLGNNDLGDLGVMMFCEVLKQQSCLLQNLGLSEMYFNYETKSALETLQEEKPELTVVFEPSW

SMILES | IC50 (human NLRP3 [1]; Table B, activity class) [nM] | IC50 (human NLRP3 [1]; Table C) [nM] | fold improvement in binding activity (SPA IC50) (human NLRP3 [1]; [3]) [fold] | IC50 (mouse NLRP3; Table B, activity class) [nM] | IC50 (mouse NLRP3; Table C) [nM] | IC50 (human NLRP3 [2]; Table B, activity class) [nM] | IC50 (human NLRP3 [2]; Table C) [nM] | fold improvement in potency (PBMC IC50) (human NLRP3 [2]; [3]) [fold] | fold increase in binding activity (SPA IC50) (human NLRP3 [1]; relative to Compound 39A) [fold]
C[C@@H]1CCN(c2nnn[nH]2)C[C@H](NC(=O)N(C)c2ccc(Cl)cc2)C1 (single isomer, unassigned) [4A*] | < 1000 | 96 | > 1950 | < 1000 | 40 | < 10 | 6.8 | > 700 | –
C[C@@H]1CCN(c2nnn[nH]2)C[C@H](NC(=O)N(C)c2ccc(OC(F)(F)F)cc2)C1 (single isomer, unassigned) [10A*] | < 1000 | 200 | – | < 1000 | 95 | < 10 | 9.1 | – | –
C[C@@H]1CCN(c2nnn[nH]2)C[C@H](NC(=O)N(C)c2ccc(OC(F)F)cc2)C1 (single isomer, unassigned) [11A*] | < 1000 | 140 | – | < 1000 | 26 | < 10 | 4.2 | – | 5.9
